Data published in patent US20240366693A1, “COMPOSITIONS FOR ENHANCING IMMUNOTHERAPY EFFICACY IN COLORECTAL CANCER TREATMENT” (The Chinese University of Hong Kong, priority 2023, published 2024).

Legend:
CD8+ T cells [1] = test: Cytotoxic CD8+ T cell markers, T cells from mouse spleen; format: cell-based; details: butyrate 1 mM, inosine 0.4 μg/ml
Experimental: (§1) T cells isolated from healthy human peripheral blood mononuclear cells (PBMC) using immunomagnetic negative selection kit (17951, Stemcell Technologies, Vancouver, CA). Isolated T cells were then cultured in complete RPMI-1640 medium supplied with human CD3/CD28 magnet beads (11161D, Thermo Fisher Scientific, Waltham, US) and 30 U/ml recombinant human IL-2 (589104, BioLgend, San Diego, US) for expiation and activation for three days. Mouse T cells were isolated from the spleen of naïve mice and purified with Mouse T cell isolation kit (19851, Thermo Fisher Scientific, Waltham, US), cultured in complete RPMI-1640 medium with mouse CD3/CD28 beads (11456D, Thermo Fisher Scientific, Waltham, US) and 30 U/ml recombinant mouse IL-2 (575404, BioLegend, San Diego, US).
(§2) Cytotoxic CD8+ T cell markers Granzyme B, IFN-γ, TNF-α under the in vitro treatments of R.i CM, NaBu or TLR5 inbibitor TH1020 (HY-116961, MedChemExpress, Monmouth Junction, US) were analyzed with flow cytometry. Isolated human T cells were stimulated with 30 ng/ml PMA, 1 μg/ml ionomycin and 2.5 μg/ml monensin in complete RPMI-1640 medium at 37° C. for 4 hours. […]

NF-κB = test: Phospho-NF-κB p65 in activated Jurkat E6.1 T cells; format: cell-based, human; details: α-CD3/CD28/IL-2 activated Jurkat E6.1 T cells
Experimental: Phospho-NF-κB p65 (Ser536) Rabbit mAb (3033, Cell Signalling Technology, Danvers, US, 1:1000) and NF-κB p65 (D14E12) Rabbit mAb (8242, Cell Signalling Technology, Danvers, US, 1:1000) were used to measure NF-κB nuclear translocation in αCD3/αCD28/IL2 activated Jurkat E6.1 T cells.
Normal human epithelial cell NCM460, human CRC cell lines HCT116, LoVo, SW480, and mouse CRC cell lines MC38 and CT26 were cultured in Dulbecco's Modified Eagle's Medium (DMEM) with 10% fetal bovine serum (FBS) and 1% penicillin-streptomycin (P/S). Jurkat E6.1 (TIB-152, ATCC) was cultured in RPMI-1640 supplied with 10% FBS and 1% penicillin-streptomycin and activated in 3 μg/ml anti-CD3 (300332, BioLgend, San Diego, US), 5 μg/ml anti-human CD28 (302934, BioLgend, San Diego, US) and 100 IU/ml recombinant human IL-2 (589104, BioLgend, San Diego, US) pre-coated wells for 3 days.

TLR5 [2] = molecular target: TLR5 (Homo sapiens, UniProt O60602); test: biochemical
Tlr5 [3] = test: qPCR of receptors and transporters on CD8+ T cells; format: cell-based, mouse; details: butyrate treatment
Experimental: Total RNA was extracted with Trizol (15596018, Invitrogen, Waltham, US) from naïve mouse spleen isolated T cells after CD3/CD28/IL-2 activation and R.i CM and Butyrate treatments. Then, RNA was reverse transcript into cDNA with RT reagent kit with gDNA eraser (R[…], Takara, Tokyo, JPN). qPCR was performed using TB Green Premix (R[…], Takara) in the QuantStudio 7 Flex System (Thermo Fisher Scientific, Waltham, US). The relative RNA expression was normalized to that of β-actin as denominators.

CD8+ T cells [4] = test: Cytotoxic CD8+ T cell markers, T cells from human PBMC; format: cell-based; details: human PBMC T cells activated by α-CD3/CD28 and IL-2; butyrate 1 mM
Experimental: as §1, §2

HCT116, LoVo, SW480 [5] = test: Cell apoptosis and cell cycle (flow cytometry, western blot); format: cell-based, human; details: R.i CM 5%; butyrate 1 mM; inosine 0.4 μg/ml
Experimental: Flow Cytometry was used for cell apoptosis and cell cycle analysis with FACSAria cell sorter (BD Biosciences, Franklin Lakes, US). Data was analyzed by FlowJo 10.4.
Cell apoptosis was detected by FITC Annexin V apoptosis detection kit (556547, BD Biosciences, Franklin Lakes, US). Adherent cells were removed by Trypsin-EDTA solution and washed with cold PBS twice and then resuspend in binding buffer at a concentration of 1× 10^6 cells/ml. 100 μl of cell solution was transferred to a 5 ml tube, incubated with 5 μl FITC Annexin V and 5 μl PI for 15 minutes at 25° C. in the dark. Cells were added with 400 μl binding buffer to stop staining and analyzed by flow cytometer in one hour.
For cell cycle analysis, cell pellet was washed by PBS and incubated in 70 to 80% ethanol at −20° C. for more than two hours. In each test, 10^6 cells were used for staining in 0.5 ml PI/RNase staining buffer (550825, BD Biosciences, Franklin Lakes, US) for 15 minutes at room temperature in the dark. Tubes were stored at 4° C. protected from light and analyzed on flow cytometer with one hour.

HCT116, LoVo, SW480 [6] = test: Cell viability assay on CRC cells (R. intestinalis example); format: cell-based, human; details: R.i CM 5% (vol/vol); butyrate 1 mM; inosine 0.4 μg/ml
Experimental: 1000 cells per well were seed into a 96-well plate and treated with alive or pasteurized E. coli (CFU=10^6/ml) and R. intestinalis (CFU=10^6/ml), 5% (vol/vol) YCFA, E. coli CM, R. i CM in DMEM separately. Cell viability was determined by Thiazolyl Blue Tetrazolium Bromide (M5644, Merck KGaA, Dacmstadt, DE) 3 days constantly.

human AHR protein = molecular target: T1, human AHR protein (Homo sapiens, UniProt P35869); test: biochemical; format: binding
T1 sequence (P35869 11-848): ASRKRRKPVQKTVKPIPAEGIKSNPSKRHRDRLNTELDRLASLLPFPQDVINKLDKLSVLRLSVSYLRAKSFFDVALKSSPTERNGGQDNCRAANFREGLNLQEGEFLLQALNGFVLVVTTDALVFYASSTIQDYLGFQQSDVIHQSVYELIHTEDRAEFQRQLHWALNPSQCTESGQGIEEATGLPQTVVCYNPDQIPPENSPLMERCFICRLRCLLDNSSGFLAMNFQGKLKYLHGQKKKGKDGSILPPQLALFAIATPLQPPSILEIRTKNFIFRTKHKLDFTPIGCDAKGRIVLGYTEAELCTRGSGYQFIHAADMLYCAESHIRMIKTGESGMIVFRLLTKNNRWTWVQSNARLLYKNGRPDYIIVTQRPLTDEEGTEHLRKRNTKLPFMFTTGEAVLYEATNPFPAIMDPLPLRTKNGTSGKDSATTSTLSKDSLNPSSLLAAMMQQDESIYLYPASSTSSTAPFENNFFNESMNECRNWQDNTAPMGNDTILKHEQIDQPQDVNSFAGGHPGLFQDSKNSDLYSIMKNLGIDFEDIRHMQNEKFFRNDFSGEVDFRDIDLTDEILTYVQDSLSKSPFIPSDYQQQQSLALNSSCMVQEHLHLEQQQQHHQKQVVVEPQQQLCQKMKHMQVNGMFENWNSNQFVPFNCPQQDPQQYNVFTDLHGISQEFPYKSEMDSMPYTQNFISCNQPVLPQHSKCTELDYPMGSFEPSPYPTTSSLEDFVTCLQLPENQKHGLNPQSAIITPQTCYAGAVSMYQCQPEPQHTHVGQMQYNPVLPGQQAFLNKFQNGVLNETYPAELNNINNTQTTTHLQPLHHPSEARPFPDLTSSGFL
From the text: We also performed the surface plasma resonance (SPR) assay to explore the interaction between ICA/Kyn with the human AHR receptor. […] These support our hypothesis that ICA displaces Kyn from AHR receptor and inhibited Kyn-mediated Treg differentiation through receptor competition.

IDO1 = IDO1 mRNA expression in human CRC cell lines induced with IFNγ; format: cell-based; details: HCT116 and LoVo; ICA 5 μM; IFNγ 100 ng/mL
Experimental: (§3) Total RNAs were extracted from cell pellets or colonic tissues using TRIzol Reagent (Life Technologies). Complementary DNA (cDNA) was prepared using PrimeScript RT Reagent Kit with gDNA Eraser (Takara, Shiga, Japan). The relative level of specific genes was determined by QuantStudio™ 7 Flex Real-Time PCR System (Thermo Fisher Scientific). All gene expression values were normalized to β-actin and calculated using the 2-ΔΔCt method.
Given that ICA was identified as the functional metabolite of L. gallinarum (FIG. 4), we postulated that ICA could be an IDO1 inhibitor. We added IFNγ (100 ng/mL) to induce IDO1 expression.

AHR = AHR target gene CYP1B1 expression on CD4+ T cells; format: cell-based, mouse
Experimental: (§4) T cells were isolated from spleens of tumour-bearing mice by negative selection using magnetic cell separation (EasySep mouse T cell isolation kit, CD8+ T cell isolation kit or CD4+ CD25+ Regulatory T cell Isolation Kit II; STEMCELL Technologies, Vancouver, Canada). Isolated T cells were cultured in Roswell Park Memorial Institute 1640 medium supplemented with 10% FBS, 50 μM β-mercaptoethanol, 10 ng/ml mouse recombinant interleukin-2 (IL-2), 0.1 ng/mL transforming growth factor β (TGFβ) and activated with Dynabeads mouse anti-CD3/CD28 beads (Thermo Fisher Scientific, Waltham, MA) for 72 hours. Cells were then collected for analysis.
as §3

CD4+ T cells = test: Foxp3+ Treg differentiation of CD4+ T cells in vitro; format: cell-based, mouse
Experimental: as §4

CT26 = test: ICA model in CT26 syngeneic mice with anti-PD1 and Kyn supplementation; format: in vivo, mouse
Experimental: For indolecarboxylic acid (ICA) model, ICA (18 mg/kg, Sigma-Aldrich, St. Louis, MO) was gavaged to mice daily. Tumour inoculation and dosing schedule of anti-PD1 or isotype control is the same as described above. After the outgrowth of palpable tumours, kynurenine (Kyn, 10 mg/kg, Sigma-Aldrich) was intraperitoneally injected into mice twice weekly.

[7] = ICA 18 mg/kg daily gavage with anti-PD1 vs vehicle control

Sequence of TLR5 (O60602 21-858, species assumed): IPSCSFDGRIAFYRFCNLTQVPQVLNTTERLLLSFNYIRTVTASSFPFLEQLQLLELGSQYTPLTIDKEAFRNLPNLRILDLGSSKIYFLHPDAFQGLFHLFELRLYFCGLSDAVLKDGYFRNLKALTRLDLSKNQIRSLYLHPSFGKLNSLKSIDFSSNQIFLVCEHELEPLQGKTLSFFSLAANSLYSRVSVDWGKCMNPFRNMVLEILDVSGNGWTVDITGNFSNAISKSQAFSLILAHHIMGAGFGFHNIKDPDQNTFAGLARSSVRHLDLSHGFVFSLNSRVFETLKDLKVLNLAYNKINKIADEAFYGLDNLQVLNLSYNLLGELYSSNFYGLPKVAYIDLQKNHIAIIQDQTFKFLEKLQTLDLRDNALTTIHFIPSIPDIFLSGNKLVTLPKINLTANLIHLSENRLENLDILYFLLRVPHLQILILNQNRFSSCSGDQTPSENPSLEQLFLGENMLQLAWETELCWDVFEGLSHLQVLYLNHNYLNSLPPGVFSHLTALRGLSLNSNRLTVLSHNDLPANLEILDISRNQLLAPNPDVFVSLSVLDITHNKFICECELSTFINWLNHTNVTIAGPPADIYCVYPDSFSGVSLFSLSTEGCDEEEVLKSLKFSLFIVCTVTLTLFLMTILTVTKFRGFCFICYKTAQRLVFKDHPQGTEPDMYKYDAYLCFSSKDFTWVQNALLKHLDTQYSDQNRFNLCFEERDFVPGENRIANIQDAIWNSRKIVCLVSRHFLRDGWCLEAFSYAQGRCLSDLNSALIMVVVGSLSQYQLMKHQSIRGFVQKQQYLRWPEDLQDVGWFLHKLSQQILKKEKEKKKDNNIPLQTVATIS

For `CCCC(=O)O` [butyrate, butyric acid], the “Granzyme B+, IFN-γ+, TNF-α+ CD8+ T cells” value (CD8+ T cells [1]) was “directly boosted Granzyme B^+, IFN-γ^+, TNF-α^+ CD8^+ T cells”, the “NF-κB nuclear translocation / phospho-NF-κB expression” value (NF-κB) was “increased NF-κB nuclear translocation with higher phospho-NF-κB expression” and the Kd (TLR5 [2]) was 264 µM. The Tlr5 expression (Tlr5 [3]) was “much higher”, the “production of Granzyme B, IFN-γ and TNF-α in CD8+ T cells” value (CD8+ T cells [4]) was “promoted the production of Granzyme B, IFN-γ and TNF-α in CD8^+ T cells” and the cell apoptosis (HCT116, LoVo, SW480 [5]) was “apoptosis inducement”. For the same compound, the cell cycle (HCT116, LoVo, SW480 [5]) was “cell cycle arrest” and the “cell viability of CRC cells” value (HCT116, LoVo, SW480 [6]) was “cell viability inhibition”.
In the case of `OC[C@H]1O[C@@H](n2cnc3c(O)ncnc32)[C@H](O)[C@@H]1O` [inosine, reference compound], the “Granzyme B+, IFN-γ+, TNF-α+ CD8+ T cells” value (CD8+ T cells [1]) is reported as “no effects on Granzyme B^+, IFN-γ^+, TNF-α^+ CD8^+ T cells”, the cell apoptosis (HCT116, LoVo, SW480 [5]) is reported as “no suppressive effects” and the cell cycle (HCT116, LoVo, SW480 [5]) is reported as “no suppressive effects”. The “cell viability of CRC cells” value (HCT116, LoVo, SW480 [6]) was “no suppressive effects”.
In the case of `O=C(O)c1c[nH]c2ccccc12` [ICA, indole-3-carboxylic acid], the Kd (human AHR protein) is reported as ~39.4 µM, the IDO1 expression (IDO1) is reported as “significantly suppressed IDO1 expression” and the “Kyn-induced CYP1B1 expression” value (AHR; ICA added to Kyn 50 μM) is reported as “markedly suppressed Kyn-induced CYP1B1 expression”. For the same compound, the CYP1B1 expression (AHR; ICA alone) was “weakly promoted CYP1B1 expression”, the “Kyn-mediated Treg differentiation” value (CD4+ T cells; ICA added to Kyn 50 μM) was “antagonized Kyn-mediated Treg differentiation in a dose-dependent manner” and the “Treg differentiation, treatment alone” value (CD4+ T cells; naïve CD4+ T cells, without Kyn) was “none significantly affected Treg differentiation”. For the same compound, the “ICA dose antagonizing Kyn-mediated Treg differentiation” value (CD4+ T cells; with Kyn 50 μM) was ≥ 1.25 µM, the “IFNγ+ CD8+ T cells” value (CT26; ICA) was “increased IFNγ+ CD8+ T cells” and the “Kyn level in serum” value (CT26; ICA) was “significantly reduced Kyn level”. For the same compound, the “Kyn level in tumour” value (CT26; ICA) was “significantly reduced Kyn level”, the “Kyn/Trp ratio in tumour” value (CT26; ICA) was “significantly reduced” and the Treg infiltration (CT26; ICA) was “reduced Treg infiltration”. For the same compound, the tumour volume (CT26; [7]) was “reduced tumour weight and tumour volume” and the tumour weight (CT26; [7]) was “reduced tumour weight”.
